The text below walks through data of patent US20250049791A1, “Synthesis of MEK7 Inhibitors and methods of Use Thereof” (Northwestern University, priority 2023, published 2025).

One data set addresses T1, MEK5 (Homo sapiens, UniProt Q13163).
T1 sequence (Q13163 1-448): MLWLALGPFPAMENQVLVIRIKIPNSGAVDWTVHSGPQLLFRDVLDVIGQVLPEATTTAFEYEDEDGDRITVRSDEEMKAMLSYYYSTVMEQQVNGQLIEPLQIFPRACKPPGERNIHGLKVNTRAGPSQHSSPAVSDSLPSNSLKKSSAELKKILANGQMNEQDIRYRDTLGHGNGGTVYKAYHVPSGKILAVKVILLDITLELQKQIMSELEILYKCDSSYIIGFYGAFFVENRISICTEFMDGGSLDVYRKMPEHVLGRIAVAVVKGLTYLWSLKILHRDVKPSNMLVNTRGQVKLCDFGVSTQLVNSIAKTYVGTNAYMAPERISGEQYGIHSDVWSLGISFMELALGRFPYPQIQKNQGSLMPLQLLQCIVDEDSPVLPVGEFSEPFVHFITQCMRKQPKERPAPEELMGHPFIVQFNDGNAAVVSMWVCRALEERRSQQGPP
As to the kind of experiment: Additional selectivity assay, MEK5 (FIG. 9). Format: binding.

Data set [1] addresses T2, recombinant active full-length human MEK7 (Homo sapiens, UniProt O14733).
T2 construct: recombinant active full-length human MEK7 (Carna Biosciences); purchased Carna Biosciences
T2 sequence (O14733 1-419): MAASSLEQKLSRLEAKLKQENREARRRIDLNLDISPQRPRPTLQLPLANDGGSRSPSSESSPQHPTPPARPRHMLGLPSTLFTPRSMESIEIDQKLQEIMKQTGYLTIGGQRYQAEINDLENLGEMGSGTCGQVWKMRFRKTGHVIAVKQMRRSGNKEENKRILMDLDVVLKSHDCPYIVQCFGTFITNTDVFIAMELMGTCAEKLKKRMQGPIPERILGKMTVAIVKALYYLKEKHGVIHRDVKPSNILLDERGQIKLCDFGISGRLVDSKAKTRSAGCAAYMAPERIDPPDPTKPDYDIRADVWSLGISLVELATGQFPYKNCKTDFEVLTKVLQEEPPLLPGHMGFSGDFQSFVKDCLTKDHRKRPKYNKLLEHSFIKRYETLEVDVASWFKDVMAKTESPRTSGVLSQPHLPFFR
Description: ADP-Glo kinase activity assay, MEK7 with JNK1 substrate. Type of data set: biochemical. As to conditions: for IC50: 30 min preincubation; for in vitro activity against MAP2K7, in words: ADP-Glo assay, comparison within the series. The method, then: Procedure for a 5 μL Kinase reaction using the ADP-Glo Kinase Assay Kit from Promega. Staurosporine was used as the positive control, and DMSO (vehicle) was employed as the negative control. Activity of recombinant active full-length human MEK7 (Carna Biosciences) was measured with recombinant full-length human substrate JNK1 (MAPK8). Using a Mantis, a mixture of MEK7 and JNK1 was dispensed into a 384-well low volume white Proxiplate. For each well, 4 ng of MEK7 and 600 ng of JNK1 in kinase buffer (CST) were used, accounting for 1 μL of this mixture per well. Inhibitor was prepared in a DMSO solution (40 mM). A dose-response dilution was performed in a 384-well Echo transfer plate. Using an Echo Access, 10 nL of each solution was dispensed into the same 384-well low volume white Proxiplate as above. This mixture was allowed to incubate for 30 minutes at room temperature. Using a Mantis, 1 uL of an 8 μM ATP solution was added to each well, and the plate was allowed to incubate for another 1 hour at room temperature. Using the Mantis again, 4 μL of ADP Glo Reagent was dispensed into each well, and the plate was allowed to incubate for 45 min at room temperature. Finally, 9 μL of Kinase Detection Reagent was added manually to each well, and the plate was allowed to incubate for 45 minutes at room temperature. Luminescence was read on a Synergy Neo2 Plate Reader with filter cubes 3 and 114. Integration time was set to 0.20 seconds, gain set to 160, and read height set at 6 mm. All experiments were performed in triplicate on the plate, and at least in one separate technical duplicate was performed.
MEK4 selectivity was performed in the same manner with activated MEK4 (Carna Biosciences). Here, p-38α was employed as the kinase substrate in lieu of JNK1 due to the availability of reagents. […] To probe the ATP-competitive nature of 25, this compound was subjected to a similar assay forgoing the 30 minute incubation time described above (STAR Protocols 2021, 2, 100717). The results are tabulated below in compound characterization. Potency determined by duplicate of triplicates corresponded to a IC50 value, which is in line with the ratio difference observed among other covalent inhibitors (for examples, see Cell Chem. Biol. 2020, 27, 1285).
For orientation: In ADP-Glo the light output rises with the ADP produced.

In another data set the target is T3, MEK6 (Homo sapiens, UniProt P52564).
T3 sequence (P52564 1-334): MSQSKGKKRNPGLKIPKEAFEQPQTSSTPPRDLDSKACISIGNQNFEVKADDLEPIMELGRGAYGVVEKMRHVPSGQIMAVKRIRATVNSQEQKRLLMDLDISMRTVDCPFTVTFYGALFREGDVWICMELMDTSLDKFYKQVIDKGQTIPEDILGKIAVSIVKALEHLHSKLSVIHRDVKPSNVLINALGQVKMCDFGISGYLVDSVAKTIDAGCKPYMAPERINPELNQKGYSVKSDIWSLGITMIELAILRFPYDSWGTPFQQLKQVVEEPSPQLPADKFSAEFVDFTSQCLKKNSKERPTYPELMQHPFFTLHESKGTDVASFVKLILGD
Description: Additional selectivity assay, MEK6 (FIG. 9). Format: binding.

For a further data set, the target named is T4, MEK3 (Homo sapiens, UniProt P46734).
T4 sequence (P46734 1-347): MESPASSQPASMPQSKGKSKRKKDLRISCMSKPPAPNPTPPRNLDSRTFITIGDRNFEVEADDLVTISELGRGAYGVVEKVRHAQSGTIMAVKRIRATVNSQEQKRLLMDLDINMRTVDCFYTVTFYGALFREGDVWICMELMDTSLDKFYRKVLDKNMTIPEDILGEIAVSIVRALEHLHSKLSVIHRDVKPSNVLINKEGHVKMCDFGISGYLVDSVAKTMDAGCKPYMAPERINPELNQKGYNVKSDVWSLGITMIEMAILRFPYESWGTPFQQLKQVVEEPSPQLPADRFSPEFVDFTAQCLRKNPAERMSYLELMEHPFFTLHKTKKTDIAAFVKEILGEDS
As to the kind of experiment: Additional selectivity assay, MEK3 (FIG. 9). Type of data set: binding.

The next data set in a line: PAMPA permeability. Type of data set: in vitro ADME. As to conditions: FIG. 12. For orientation: In PAMPA a lipid-coated filter parts donor from acceptor wells.
Setting [2] is: overall value of two experiments, read-out: MEK7 IC50.
Where [3] appears, read: MEK7 IC50, first experiment (IC50±SEM, n=3), first value in brackets.
[4] abbreviates: MEK7 IC50, second experiment (IC50±SEM, n=3), second value in brackets.

In general, IC50 refers to the point on the concentration scale where inhibition reaches its midpoint.

Molecules are shown by their SMILES. Where two headings read alike, the source gives them in different places.

In the case of `CNc1cc(Oc2cccc(NC(=O)CCl)c2)ncn1` [Compound 8, 2-chloro-N-(3-((6-(methylamino)pyrimidin-4-yl)oxy)phenyl)acetamide], the “activity/binding at MEK5” value at MEK5 was “inactive”. Moreover, the IC50 in data set [1] (setting [2]) was 60 nM; in data set [1] (read-out: MEK7 IC50), 60 nM; in data set [1] (setting [3]) it was 87 ± 41 nM; in data set [1] (setting [4]) it was 34 ± 42 nM. For the same compound, the “activity/binding at MEK6” value on MEK6 is “inactive”. Further, the “activity/binding at MEK3” value at MEK3 was “inactive”. In “PAMPA permeability”, the PAMPA cell permeability result is given as “highly membrane permeable”.

On to `C=CC(=O)Nc1cccc(Oc2cc(NC)ncn2)c1` [Compound 9, N-(3-((6-(methylamino)pyrimidin-4-yl)oxy)phenyl) acrylamide], for which the “activity/binding at MEK5” value on MEK5 is “inactive”. Moreover, the “in vitro activity against MAP2K7, in words” value in data set [1] is listed as “less active than compound 8”. For the same compound, the IC50 turned out to be 230 ± 190 nM in data set [1] (setting [3]) and 610 ± 400 nM in data set [1] (setting [4]). Further, the “activity/binding at MEK6” value at MEK6 was “inactive”. The “activity/binding at MEK3” value at MEK3 is “inactive”.

On to `COc1ccccc1CNc1cc(Oc2cccc(NC(=O)CCl)c2)ncn1` [Compound 32, 2-chloro-N-(3-((6-((2-methoxybenzyl)amino)pyrimidin-4-yl)oxy)phenyl)acetamide], for which the IC50 in data set [1] (setting [2]) is 800 nM; in data set [1] (setting [3]) it was 590 ± 150 nM; in data set [1] (setting [4]), 1000 ± 220 nM. Moreover, the “in vitro activity against MAP2K7, in words” value in data set [1] is “towards the micromolar range”.

`O=C(CCl)Nc1cccc(Oc2cc(NCc3cc(C(F)(F)F)cc(C(F)(F)F)c3)ncn2)c1` [Compound 33, N-(3-((6-((3,5-bis(trifluoromethyl)benzyl)amino)pyrimidin-4-yl)oxy)phenyl)-2-chloroacetamide]: the 50% inhibitory concentration (IC50) turned out to be 4000 ± 4400 nM in data set [1] (setting [3]) and 8500 ± 9800 nM in data set [1] (setting [4]).

On to `COc1ccc(CNc2cc(Oc3cccc(NC(=O)CCl)c3)ncn2)cc1OC` [Compound 35, 2-chloro-N-(3-((6-((3,4-dimethoxybenzyl)amino)pyrimidin-4-yl)oxy)phenyl)acetamide], for which the IC50 is 260 nM in data set [1] (setting [2]), 390 ± 730 nM in data set [1] (setting [3]) and 120 nM in data set [1] (setting [4]).

On to `Cc1ccc(CNc2cc(Oc3cccc(NC(=O)CCl)c3)ncn2)cc1` [Compound 36, 2-chloro-N-(3-((6-((4-methylbenzyl)amino)pyrimidin-4-yl)oxy)phenyl)acetamide], for which the 50% inhibitory concentration (IC50) in data set [1] (setting [2]) came out at 360 nM; in data set [1] (setting [3]), 420 ± 320 nM; in data set [1] (setting [4]), 300 ± 150 nM.

Take `O=C(CCl)Nc1cccc(Oc2cc(NCc3ccc(C(F)(F)F)cc3)ncn2)c1` [Compound 37, 2-chloro-N-(3-((6-((4-(trifluoromethyl)benzyl)amino)pyrimidin-4-yl)oxy)phenyl)acetamide]: the IC50 in data set [1] (setting [2]) was determined as 410 nM; in data set [1] (setting [3]) it was 200 ± 410 nM; in data set [1] (setting [4]) it was 640 ± 270 nM.
